Measured values as given in patent US10980814B2, “Fused pentacyclic imidazole derivatives as modulators of TNF activity” (UCB Biopharma SRL, priority 2017, dated 2021).

The compounds below were run against T1, human hERG channels (Kv11.1) (Homo sapiens, UniProt Q12809) (assay: hERG assay, automated planar patch-clamp in CHO cells stably expressing human hERG channels). Details: peak tail-current, QPatch HTX whole-cell voltage-clamp, room temperature, 0.12-30 μM.
T1 construct: host or cells: CHO cells (hERG-Duo cells)
Assay type: cell-based
Experimental: Pharmacological activity of the compounds at cardiac hERG channels (Kv11.1) was assessed functionally using an automated planar patch-clamp electrophysiology station. CHO cells stably expressing human hERG channels were grown under the permanent pressure of the appropriate selection antibiotics according to the specifications of the manufacturer (hERG-Duo cells, B'SYS GmbH, Switzerland). Cells were harvested below 80% confluence, suspended in serum-free medium and dispensed automatically to multi-well recording plates for whole-cell voltage-clamp recordings on a QPatch HTX workstation (Sophion, BiolinScientific AB, Denmark). The composition of the extracellular recording buffer was (in mM): NaCl, 150; KCl, 4; CaCl2), 2; MgCl2, 1; HEPES, 10; and glucose, 10; adjusted to pH 7.4 with NaOH. The intracellular buffer contained (in mM): KCl, 120; CaCl2), 5; MgCl2, 2; EGTA, 10; HEPES, 10; and Mg-ATP, 4; adjusted to pH 7.2 with KOH. The voltage protocol used to activate hERG currents consisted in a first depolarizing step from a −80 mV holding potential to +20 mV for 5 s followed by a second repolarizing step to −50 mV. Cycle time was 15 s, recordings were performed at room temperature and drug effects were evaluated on the peak tail-current elicited by the second repolarizing step. For pharmacology, stock solutions of the test articles at 10 mM were prepared in DMSO. A 6-point concentration-range was prepared in polypropylene micro-titer plates by first serially diluting the initial 10 mM stock 1:3 in DMSO and then diluting each of the 6 intermediate working solutions 1:333 in extracellular recording medium containing 0.06% Pluronic F-68 (Gibco/Thermofischer, France). Final concentrations of test articles (i.e. 0.12 μM, 0.37 μM, 1.1 μM, 3.3 μM, 10 μM and 30 μM) were applied cumulatively to the cells in ascending order. A positive control (terfenadine, 10 μM) was added at the end of each recording sequence. Time-course of hERG tail current amplitude was analyzed off-line following optional leak current substraction and compensation of current rundown as needed. Half-maximal inhibitory concentrations (IC50) were obtained by fitting current amplitudes measured at the end of each exposure period and normalized with respect to pre-drug baseline with a four parameter sigmoidal equation.

T1 sequence (Q12809 whole entry): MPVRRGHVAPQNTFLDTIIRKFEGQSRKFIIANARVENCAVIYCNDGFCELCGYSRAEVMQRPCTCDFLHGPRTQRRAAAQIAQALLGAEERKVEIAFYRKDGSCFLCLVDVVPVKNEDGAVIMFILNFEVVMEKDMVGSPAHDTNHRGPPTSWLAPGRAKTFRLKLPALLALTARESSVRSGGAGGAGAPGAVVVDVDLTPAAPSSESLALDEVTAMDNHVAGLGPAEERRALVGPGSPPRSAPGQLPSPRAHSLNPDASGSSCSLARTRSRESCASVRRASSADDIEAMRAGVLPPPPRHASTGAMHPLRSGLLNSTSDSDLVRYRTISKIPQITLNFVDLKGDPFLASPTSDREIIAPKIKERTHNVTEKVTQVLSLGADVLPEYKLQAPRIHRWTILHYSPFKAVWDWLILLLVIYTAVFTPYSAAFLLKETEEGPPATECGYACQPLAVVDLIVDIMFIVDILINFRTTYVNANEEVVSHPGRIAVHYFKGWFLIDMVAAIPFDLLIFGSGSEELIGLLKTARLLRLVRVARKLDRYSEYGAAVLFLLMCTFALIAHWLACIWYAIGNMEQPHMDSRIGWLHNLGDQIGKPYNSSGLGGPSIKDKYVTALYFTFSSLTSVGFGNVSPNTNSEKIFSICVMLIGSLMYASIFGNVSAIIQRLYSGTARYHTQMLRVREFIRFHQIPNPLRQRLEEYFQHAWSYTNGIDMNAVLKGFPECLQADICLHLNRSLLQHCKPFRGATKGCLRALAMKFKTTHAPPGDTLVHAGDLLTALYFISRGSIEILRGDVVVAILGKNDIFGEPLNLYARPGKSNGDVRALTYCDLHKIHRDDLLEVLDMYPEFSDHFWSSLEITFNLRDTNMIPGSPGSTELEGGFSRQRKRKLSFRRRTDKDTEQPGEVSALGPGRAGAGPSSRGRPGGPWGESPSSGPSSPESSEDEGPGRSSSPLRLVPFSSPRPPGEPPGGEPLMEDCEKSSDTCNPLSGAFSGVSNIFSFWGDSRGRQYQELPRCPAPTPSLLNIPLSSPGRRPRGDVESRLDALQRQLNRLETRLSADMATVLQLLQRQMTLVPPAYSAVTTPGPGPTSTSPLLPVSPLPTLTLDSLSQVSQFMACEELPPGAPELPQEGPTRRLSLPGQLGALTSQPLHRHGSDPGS

Point of comparison: `CN1C(=O)c2cccc(OC(F)F)c2[C@H]2C[C@@H]1c1nc3ccc(-c4cnc(C5(N)CCC5)nc4)cc3n12` [Example 6, (7R,14R)-11-[2-(1-Aminocyclobutyl)pyrimidin-5-yl]-1-(difluoromethoxy)-6-methyl-6,7-dihydro-7,14-methanobenzimidazo[1,2-b][2,5]benzodiazocin-5(14H)-one], IC50 ~8 µM. Against it:
- C[C@@H]1CC[C@@]1(N)c1ncc(-c2ccc3nc4n(c3c2)[C@@H]2C[C@H]4NC(=O)c3cccc(OC(F)F)c32)cc1F (single isomer, unassigned) [Example 5, (7R,14R)-11-{6-[(1 S,2R)-1-Amino-2-methylcyclobutyl]-5-fluoropyridin-3-yl}-1-(difluoromethoxy)-6,7-dihydro-7,14-methanobenzimidazo[1,2-b][2,5]benzodiazocin-5(14M-one or (7R,14R)-11-{6-[(1R,2S)-1-Amino-2-methylcyclobutyl]-5-fluoropyridin-3-yl}-1-(difluoromethoxy)-6,7-dihydro-7,14-methanobenzimidazo[1,2-b][2,5]-benzodiazocin-5(14H)-one] — higher, > 30 µM
- CN1C(=O)c2cccc(OC(F)F)c2[C@H]2C[C@@H]1c1nc3ccc(-c4cnc([C@]5(N)C[C@](O)(C(F)(F)F)C5)c(F)c4)cc3n12 (single isomer, unassigned) [Example 11] — higher, > 30 µM
- CN1C(=O)c2cccc(OC(F)F)c2[C@H]2C[C@@H]1c1nc3ccc(-c4cnc([C@]5(N)C[C@](O)(C(F)(F)F)C5)nc4)cc3n12 (single isomer, unassigned) [Example 12] — higher, > 30 µM
- C[C@]1(C#N)C[C@](N)(c2ncc(-c3ccc4nc5n(c4c3)[C@@H]3C[C@H]5NC(=O)c4cccc(OC(F)F)c43)cn2)C1 [Example 2, cis-3-Amino-3-{5-[(7R,14R)-1-(difluoromethoxy)-5-oxo-5,6,7,14-tetrahydro-7,14-methanobenzimidazo[1,2-b][2,5]benzodiazocin-11-yl]pyrimidin-2-yl}-1-methyl-cyclobutanecarbonitrile] — higher, > 30 µM
- C[C@]1(C#N)C[C@](N)(c2ncc(-c3ccc4nc5n(c4c3)[C@@H]3C[C@H]5NC(=O)c4cccc(OC(F)F)c43)cc2F)C1 [Example 4, cis-3-Amino-3-{5-[(7R,14R)-1-(difluoromethoxy)-5-oxo-5,6,7,14-tetrahydro-7,14-methanobenzimidazo[1,2-b][2,5]benzodiazocin-11-yl]-3-fluoropyridin-2-yl}-1-methyl-cyclobutanecarbonitrile] — higher, > 30 µM
- C[C@]1(O)C[C@](N)(c2ncc(-c3ccc4nc5n(c4c3)[C@@H]3C[C@H]5NC(=O)c4cccc(OC(F)F)c43)cc2F)C1 [Example 8, (7R,14R)-11-[6-(cis-1-Amino-3-hydroxy-3-methylcyclobutyl)-5-fluoropyridin-3-yl]-1-(difluoromethoxy)-6,7-dihydro-7,14-methanobenzimidazo[1,2-b][2,5]benzodiazocin-5(14H)-one] — higher, > 30 µM
- C[C@]1(CO)C[C@](N)(c2ncc(-c3ccc4nc5n(c4c3)[C@@H]3C[C@H]5NC(=O)c4cccc(OC(F)F)c43)cc2F)C1 [Example 10, (7R,14R)-11-{6-[cis-1-Amino-3-(hydroxymethyl)-3-methylcyclobutyl]-5-fluoropyridin-3-yl}-1-(difluoromethoxy)-6,7-dihydro-7,14-methanobenzimidazo[1,2-b][2,5]-benzodiazocin-5(14H)-one] — higher, > 30 µM
- N[C@]1(c2ncc(-c3ccc4nc5n(c4c3)[C@@H]3C[C@H]5NC(=O)c4cccc(OC(F)F)c43)cc2F)C[C@@](O)(C(F)(F)F)C1 [Example 13, (7R,14R)-11-{6-[cis-1-Amino-3-hydroxy-3-(trifluoromethyl)cyclobutyl]-5-fluoropyridin-3-yl}-1-(difluoromethoxy)-6,7-dihydro-7,14-methanobenzimidazo[1,2-b][2,5]-benzodiazocin-5(14H)-one] — higher, > 30 µM
- [2H]C([2H])(O)[C@]1(C)C[C@@](N)(c2ncc(-c3ccc4nc5n(c4c3)[C@@H]3C[C@H]5NC(=O)c4cccc(OC(F)F)c43)cn2)C1 [Example 14, (7R,14R)-11-(2-{cis-1-Amino-3-[hydroxy(dideutero)methyl]-3-methylcyclobutyl}-pyrimidin-5-yl)-1-(difluoromethoxy)-6,7-dihydro-7,14-methanobenzimidazo[1,2-b][2,5]-benzodiazocin-5(14H)-one] — higher, > 30 µM
- C[C@]1(CO)C[C@](N)(c2ncc(-c3ccc4nc5n(c4c3)[C@@H]3C[C@H]5NC(=O)c4cccc(OC(F)F)c43)cn2)C1 [Example 15, (7R,14R)-11-{2-[cis-1-Amino-3-(hydroxymethyl)-3-methylcyclobutyl]pyrimidin-5-yl}-1-(difluoromethoxy)-6,7-dihydro-7,14-methanobenzimidazo[1,2-b][2,5]benzodiazocin-5(14H)-one] — higher, > 30 µM
- [2H]C([2H])(O)[C@]1(C)C[C@@](N)(c2ncc(-c3ccc4nc5n(c4c3)[C@@H]3C[C@H]5NC(=O)c4cccc(OC(F)F)c43)cc2F)C1 [Example 16, (7R,14R)-11-(6-{cis-1-Amino-3-[hydroxy(dideutero)methyl]-3-methylcyclobutyl}-5-fluoropyridin-3-yl)-1-(difluoromethoxy)-6,7-dihydro-7,14-methanobenzimidazo[1,2-b]-[2,5]benzodiazocin-5(14H)-one] — higher, > 30 µM
